# Test results published in PMC8025677 (Cell, 2020).
# Read-outs that look alike come from different tables or passages of the source.
# Experiments:
# [1] = target: iAChSnFR (early version; iAChSnFR0.6 in Figure S2A); settings: n = 3
# hSERT = hSERT (Homo sapiens, UniProt P31645); experiment: oscillating stimulus transporter assay; format: cell-based
# iSeroSnFR = format: binding, Thermoanaerobacter sp. X513; settings: for Kd: read-out: apparent Kd, pH 7.4
# [2] = system: electrically evoked 5-HT release in dorsal striatum slices; design: species or system mouse
# hSERT, sequence (P31645 whole entry): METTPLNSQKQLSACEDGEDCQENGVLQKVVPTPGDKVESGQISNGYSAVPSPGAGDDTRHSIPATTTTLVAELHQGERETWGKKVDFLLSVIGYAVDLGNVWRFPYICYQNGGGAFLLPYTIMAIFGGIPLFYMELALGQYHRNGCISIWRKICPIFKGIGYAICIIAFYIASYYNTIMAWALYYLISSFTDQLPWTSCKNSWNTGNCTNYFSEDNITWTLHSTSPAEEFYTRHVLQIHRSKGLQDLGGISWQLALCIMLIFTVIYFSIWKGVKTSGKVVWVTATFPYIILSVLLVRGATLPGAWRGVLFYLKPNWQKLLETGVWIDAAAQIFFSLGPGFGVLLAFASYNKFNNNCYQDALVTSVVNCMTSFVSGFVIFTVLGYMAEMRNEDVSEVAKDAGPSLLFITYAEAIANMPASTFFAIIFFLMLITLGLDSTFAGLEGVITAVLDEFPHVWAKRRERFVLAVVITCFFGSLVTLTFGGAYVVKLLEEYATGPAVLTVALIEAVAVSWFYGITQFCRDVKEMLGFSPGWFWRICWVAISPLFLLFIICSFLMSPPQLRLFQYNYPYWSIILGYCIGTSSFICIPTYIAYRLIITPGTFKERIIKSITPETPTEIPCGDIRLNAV
smiles,measurement,setting,value
"NCCc1c[nH]c2ccc(O)cc12 [5-HT, serotonin (5-hydroxytryptamine)]",Kd,[1],> 1 mM
"CNC(C)Cc1ccc2c(c1)OCO2 (stereo not shown) [MDMA, 3,4-methyl enedioxy methamphetamine]",enhancement in 5-HT efflux,hSERT,2 fold
"CCCCCCCCCCCCCC(=O)O[C@@H]1[C@@H](C)[C@@]2(O)[C@@H](C=C(CO)C[C@]3(O)C(=O)C(C)=C[C@@H]23)[C@@H]2C(C)(C)[C@]12OC(C)=O [PMA, phorbol 12-myristate 13-acetate]",effect on 5-HT transport rate,hSERT; 400 nM,slow decrement in transport rate over ~40 minutes
COC(=O)[C@H]1[C@@H](OC(=O)c2ccccc2)C[C@@H]2CC[C@H]1N2C [cocaine],effect on 5-HT transport,hSERT,reduced
NCCc1ccc(O)c(O)c1 [dopamine],Kd,iSeroSnFR,5.6 mM
NC1=N[C@H](O)[C@H]2[C@H]3O[C@]4(O)O[C@@H]([C@@H](O)[C@@]2(N1)[C@@H]4O)[C@]3(O)CO [tetrodotoxin],effect on electrically evoked fluorescence transients,[2],completely abolished
NCCc1c[nH]c2ccccc12 [tryptamine],times weaker affinity than 5-HT,iSeroSnFR; purified iSeroSnFR,8 times
same,Kd,iSeroSnFR; purified iSeroSnFR 100 nM,2.4 mM
N#Cc1ccc2[nH]cc(CCCCN3CCN(c4ccc5oc(C(N)=O)cc5c4)CC3)c2c1 [vilazodone],effect on 5-HT transport,hSERT; concentration not given,caused transport function to rapidly disappear
same,recovery of transport after washout,hSERT; washouts of >20 minutes,did not return to baseline
